Test results taken from patent publication US20230271956A1, “AMIDE DERIVATIVES” (Merck Patent GmbH, priority 2020, published 2023).

Columns and labels:
ACSS2 = molecular target: T1, ACSS2 (Homo sapiens, UniProt Q9NR19); experiment: Cellular assay of 14C acetate incorporation into histones (IC50 ACSS2 cellular histone); type: cell-based; conditions: HCT-15 cells
T1 construct: endogenous fatty acid synthesis activity in the human HCT-15 cancer cell line; endogenous in cells; host or cells: HCT-15
T1 sequence (Q9NR19 whole entry): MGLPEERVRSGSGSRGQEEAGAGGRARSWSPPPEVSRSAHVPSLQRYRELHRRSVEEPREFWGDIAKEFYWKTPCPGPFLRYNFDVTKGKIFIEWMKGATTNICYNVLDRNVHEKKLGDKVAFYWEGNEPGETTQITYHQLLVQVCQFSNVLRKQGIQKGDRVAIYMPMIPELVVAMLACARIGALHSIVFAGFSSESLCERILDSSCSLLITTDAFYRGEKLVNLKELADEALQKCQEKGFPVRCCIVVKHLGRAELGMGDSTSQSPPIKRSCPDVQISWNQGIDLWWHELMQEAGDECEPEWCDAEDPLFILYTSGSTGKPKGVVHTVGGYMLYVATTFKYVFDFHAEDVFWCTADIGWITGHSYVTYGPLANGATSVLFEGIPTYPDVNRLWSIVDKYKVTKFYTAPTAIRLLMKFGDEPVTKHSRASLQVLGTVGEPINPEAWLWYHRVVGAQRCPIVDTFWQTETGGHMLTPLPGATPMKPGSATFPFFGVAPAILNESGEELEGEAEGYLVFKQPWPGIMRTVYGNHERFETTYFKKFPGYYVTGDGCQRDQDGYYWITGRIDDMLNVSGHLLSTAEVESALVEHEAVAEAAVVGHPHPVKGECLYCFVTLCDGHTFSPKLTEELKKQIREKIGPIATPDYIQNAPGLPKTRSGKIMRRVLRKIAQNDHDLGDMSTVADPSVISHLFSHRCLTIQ
Protocol: This protocol describes a cellular assay capable to quantify endogenous histone acetylation activity in the human HCT-15 cancer cell line following the incorporation of extracellularly administered radiolabeled ^14C acetate with a scintillation based read out on acid extracted histones.
HCT-15 cells are trypsinized, washed and suspended in DMEM culture medium supplemented with penicillin/streptomycin (100 U/mL), sodium pyruvate (1 mM), and 10% FBS
Compounds serial dilutions are prepared in 96-well V-bottom microplate from 10 mM stock solutions in DMSO. From these dilutions 0.5 µl are transferred to a fresh plate including pure DMSO as negative control. The dilutions are prepared such, that the final concentration in the assay is 1/400 of the concentration in the serial dilution. The final DMSO concentration in the assay is 0.25 %.
The cell suspension is seeded at densities of 2x10^5 cells per 170 µl into individual wells of a 96 well plate each containing 0.5 µl aliquots of compound serial dilutions and are kept for 1h in a cell incubator. To each well 30 µL of a mixture containing 0.5 mCi/mL of ^14C-acetate with full medium are added. Then, the wells are incubated for 3 hrs in the cell incubator.
Further steps of the procedure should be conducted on ice or instrumentations precooled to 4° C. Cells are sedimented in the 96-well V-bottom microplate by centrifugation (Eppendorf 5804 R) at 1200 rpm for 5 min. The supernatant is removed and the cells are washed twice with 200µL of PBS-NaB (5 mM sodium butyrate) buffer by iterative resuspension and centrifugation. Finally, the cells are resuspended in 50 µL of TEB (PBS-NaB + 0.5 % Triton X-100) and left on ice for 10 minutes. After centrifugation at 2300 rpm for 10 minutes at 4° C. the supernatant is removed, the remaining pellet is suspended in 50 µL of 0.2 M HCl and incubated over night at 4° C. After incubation the well plate is shaken for 2 minutes in a MTP plate shaker set to 1200 rpm and then centrifuged at 3700 rpm for 10 mins. The lysate is carefully aspirated (~43 µL) and transferred into a white MTP plate (Greiner bio-one 65509). 90 µL of Ultima Gold XR scintillation cocktail are added and the plates are sealed with a transparent cover tape before mixing vigorously using plate shaker set to 1200 rpm. Radioactivity from ^14C incorporation in the wells is measured as CPM count in a MicroBeta Trilux luminescence counter.

human rec ACSS2 = molecular target: T2, human rec ACSS2 (Homo sapiens, UniProt Q9NR19); experiment: Biochemical activity ACSS2 assay (AMP-Glo); conditions: human recombinant ACSS2, AMP-Glo, 180 min at 37° C.
T2 construct: myc (C); purchased Origene
T2 sequence (Q9NR19 whole entry): as above
Protocol: The biochemical activity assay for ACSS2 is based on the detection of released AMP by AMP-Glo ™ Assay kit (Promega, Madison). The assay is run in three steps: the enzymatic reaction in which human rec ACSS2 activates acetate with ATP and Coenzyme A as cosubstrates to acetyI-coA thereby releasing AMP and the detection reaction of AMP by AMP Glo assay in which after the destruction of the residual ATP with AMP Glo reagent 1 produced AMP is converted to ATP that is measured in a luciferase assay system (detection reagent). The ACSS2 activity correlates with the detected luminescence signal.
The assay was performed in Perkin Elmer 384well white Proxiplates in a total volume of 8 µl.
1 nM (fc) C-term myc tagged ACSS2 (human, recombinant, Origene, Rockville, US) and a mixture of 100 µM (fc) ATP, 100 µM (fc) Coenzyme A and 500 µM (fc) sodium acetate were incubated in a total volume of 5 µl (50 mM Hepes, 1 mM Mg-chloride, 150 mM NaCl, 1 mM DTT, 0.01 % (w/v) BSA, 0.3 % DMSO, pH 7.5) in the absence or presence of the test compound (10 dilution concentrations, start conc 30 µM) for 180 min at 37° C. The reaction was stopped and residual ATP destroyed by the addition of 1 µl AMP Glo reagent solution (Promega, Madison, US). After 1 h incubation at room temperature 2 µl of AMP Glo detection reagent was added and the assay was incubated for 0.75 hr at room temperature. The luminescence signal was measured with an Envision multimode reader (Perkin Elmer LAS Germany GmbH) at 700 nm in luminescence mode. The full value used was the inhibitor-free reaction. The pharmacological zero value was generated by addition of ACSS2 inhibitor (Ac-CoA Synthase Inhibitor - CAS 508186-14-9 -Calbiochem) in a final concentration of 5 µM. The inhibitory values (IC50) were determined using the program Assay Analyzer® from GeneData.

| IC50 (ACSS2) [nM] | IC50 (human rec ACSS2) [nM] | Compound |
| --- | --- | --- |
| 0.01 to 1 | 1 to 10 | CCn1cnc(NC(=O)c2cc3c(nc2OC)nc(C(O)(c2ccccc2)c2ccc(OC(F)F)cc2)n3CC)n1 (single isomer, unassigned) [Compound 72] |
| 10 to 100 | 10 to 100 | CCn1cc(NC(=O)c2cnc3nc(C(O)(c4ccccc4)c4ccccc4)n(CC)c3c2)cn1 [Compound 113, 1-ethyl-N-(1-ethyl-1H-pyrazol-4-yl)-2-(hydroxydiphenylmethyl)-1H-imidazo[4,5-b]pyridine-6-carboxamide] |
| 0.01 to 1 | 1 to 10 | CCn1cc(NC(=O)c2cc3c(nc2Cl)nc(C(O)(c2ccccc2F)c2ccccc2F)n3CC)cn1 [Compound 101, 2-[bis(2-fluorophenyl)(hydroxy)methyl]-5-chloro-1-ethyl-N-(1-ethyl-1H-pyrazol-4-yl)-1H-imidazo[4,5-b]pyridine-6-carboxamide] |
| 1 to 10 | 1 to 10 | CCn1cc(NC(=O)c2cc3c(nc2C)nc(C(O)(c2ccccc2)c2ccccc2)n3CC)cn1 [Compound 109, 1-ethyl-N-(1-ethyl-1H-pyrazol-4-yl)-2-(hydroxydiphenylmethyl)-5-methyl-1H-imidazo[4,5-b]pyridine-6-carboxamide] |
| 1 to 10 | 1 to 10 | CCn1cnc(NC(=O)c2cc3c(nc2OC)nc(C(O)(c2ccccc2)c2cccnn2)n3CC)n1 (racemic) [Compound 45, 1-ethyl-N-(1-ethyl-1H-1,2,4-triazol-3-yl)-2-[hydroxy(phenyl)(pyridazin-3-yl)methyl]-5-methoxy-1H-imidazo[4,5-b]pyridine-6-carboxamide] |
| 10 to 100 | 1 to 10 | CCn1cnc(NC(=O)c2cc3c(nc2C)nc(C(O)(c2ccccc2F)c2ccc(OC(F)F)cc2F)n3CC)n1 (racemic) [Compound 97, 2-{[4-(difluoromethoxy)-2-fluorophenyl](2-fluorophenyl)hydroxymethyl}-1-ethyl-N-(1-ethyl-1H-1,2,4-triazol-3-yl)-5-methyl-1H-imidazo[4,5-b]pyridine-6-carboxamide] |
| 1 to 10 | 1 to 10 | CCn1cnc(NC(=O)c2cc3c(nc2C)nc(C(O)(c2ccccc2F)c2ccccc2F)n3CC)n1 [Compound 106, 2-[bis(2-fluorophenyl)(hydroxy)methyl]-1-ethyl-N-(1-ethyl-1H-1,2,4-triazol-3-yl)-5-methyl-1H-imidazo[4,5-b]pyridine-6-carboxamide] |
| 10 to 100 | 10 to 100 | CCn1cc(NC(=O)c2cc3c(nc2Cl)nc(C(O)(c2ccc(OC(F)F)cc2)c2ccccc2F)n3CC)cn1 (racemic) [Compound 85, 5-chloro-2-{[4-(difluoromethoxy)phenyl](2-fluorophenyl)hydroxymethyl}-1-ethyl-N-(1-ethyl-1H-pyrazol-4-yl)-1H-imidazo[4,5-b]pyridine-6-carboxamide] |
| 10 to 100 | 10 to 100 | CCn1cc(NC(=O)c2cnc3nc(C(O)(c4ccccc4)c4ccccc4)n(C)c3c2)cn1 [Compound 114, N-(1-ethyl-1H-pyrazol-4-yl)-2-(hydroxydiphenylmethyl)-1-methyl-1H-imidazo[4,5-b]pyridine-6-carboxamide] |
| 1 to 10 | 1 to 10 | CCn1cc(NC(=O)c2cc3c(nc2OC)nc(C(O)(c2ccccc2)c2ccccc2)n3CC)cn1 [Compound 105, 1-ethyl-N-(1-ethyl-1 H-pyrazol-4-yl)-2-(hydroxydiphenylmethyl)-5-methoxy-1 H-imidazo[4,5-b]pyridine-6-carboxamide] |
| 10 to 100 | 1 to 10 | CCn1cc(NC(=O)c2cc3c(nc2Cl)nc(C(O)(c2ccccc2F)c2ccc(OC(F)F)cc2F)n3CC)cn1 (racemic) [Compound 93, 5-chloro-2-{[4-(difluoromethoxy)-2-fluorophenyl](2-fluorophenyl)hydroxymethyl}-1-ethyl-N-(1-ethyl-1H-pyrazol-4-yl)-1H-imidazo[4,5-b]pyridine-6-carboxamide] |

| Compound | IC50 (ACSS2) [nM] | IC50 (human rec ACSS2) [nM] |
| --- | --- | --- |
| CCn1cnc(NC(=O)c2cc3c(nc2OC)nc(C(O)(c2ccccc2F)c2ccc(OC(F)F)cc2F)n3CC)n1 (single isomer, unassigned) [Compound 71] | 0.01 to 1 | 0.01 to 1 |
